Data from PubChem BioAssay AID218 (DTP/NCI, 2004).

System: C57BL/6 mice, Adenocarcinoma 755 sc, tumor weight T/C
Experiment: NCI In Vivo Anticancer Drug Screen. Data for tumor model Adenocarcinoma 755 (subcutaneous) in C57BL/6 mice
Conditions: endpoint: mean tumor weight, higher = larger tumour
Description: The antitumor activity of compounds was measured in mice bearing transplantable tumors. Survival or tumor size were measured and the results are expressed as the measurement made in the treated group (T) divided by the measurement made in the vehicle treated control group (C). The tumor model used in this assay is Adenocarcinoma 755 (subcutaneous) in C57BL/6 mice

[1] = dose: 10.0 mg/kg/injection, schedule: Q01DX011 (ip), vehicle: saline
[2] = dose: 15.0 mg/kg/injection, schedule: Q01DX011 (ip), vehicle: saline
[3] = dose: 200.0 mg/kg/injection, schedule: Q01DX011 (ip), vehicle: saline
[4] = dose: 40.0 mg/kg/injection, schedule: Q01DX011 (ip), vehicle: saline
[5] = dose: 50.0 mg/kg/injection, schedule: Q01DX011 (ip), vehicle: saline
[6] = dose: 20.0 mg/kg/injection, schedule: Q01DX011 (ip), vehicle: saline
[7] = dose: 25.0 mg/kg/injection, schedule: Q01DX011 (ip), vehicle: saline
[8] = dose: 30.0 mg/kg/injection, schedule: Q01DX011 (ip), vehicle: saline
[9] = dose: 0.5 mg/kg/injection, schedule: Q01DX011 (ip), vehicle: carboxymethylcellulose (CMC)
[10] = dose: 4.0 mg/kg/injection, schedule: Q01DX011 (ip), vehicle: carboxymethylcellulose (CMC)
[11] = dose: 100.0 mg/kg/injection, schedule: Q01DX011 (ip), vehicle: saline
[12] = dose: 50.0 mg/kg/injection, schedule: Q01DX011 (ip), vehicle: carboxymethylcellulose (CMC)

In the case of CSc1nc(N)nc2nc[nH]c12, the T/C [1] is reported as 1 % of control and the T/C [2] is reported as 1 % of control.

With O=c1[nH]cnc2n[nH]nc12 the T/C (dose: 150.0 mg/kg/injection, schedule: Q01DX011 (ip), vehicle: saline) was 55 % of control and the T/C [3] was 20 % of control.

With CC(C)C(=O)OCC1OC(n2cnc3c(=S)nc(N)[nH]c32)C(OC(=O)C(C)C)C1OC(=O)C(C)C (stereo not given) the T/C (dose: 1.5 mg/kg/injection, schedule: Q01DX011 (ip), vehicle: saline) was 68 % of control and the T/C (dose: 3.0 mg/kg/injection, schedule: Q01DX011 (ip), vehicle: saline) was 25 % of control.

CCN(CC)c1ncnc2[nH]ncc12 was tested, and the T/C [4] was 25 % of control and the T/C [5] was 23 % of control.

In the case of CCCNc1ncnc2c1cnn2C, the T/C [1] is reported as 46 % of control, the T/C [2] is reported as 32 % of control and the T/C [6] is reported as 13 % of control.

With CCOC(N)=O the T/C [3] was 34 % of control, the T/C (dose: 300.0 mg/kg/injection, schedule: Q01DX011 (ip), vehicle: saline) was 38 % of control and the T/C (dose: 400.0 mg/kg/injection, schedule: Q01DX011 (ip), vehicle: saline) was 20 % of control. The T/C (dose: 500.0 mg/kg/injection, schedule: Q02DX006 (ip), vehicle: water) was 49 % of control, the T/C (dose: 600.0 mg/kg/injection, schedule: Q01DX011 (ip), vehicle: saline) was 3 % of control and the T/C (dose: 600.0 mg/kg/injection, schedule: Q02DX006 (ip), vehicle: water) was 34 % of control.

In the case of CN(C)c1ncnc2c1ncn2C1OC(CO)C(N)C1O (stereo not given), the T/C [6] is reported as 23 % of control, the T/C [7] is reported as 62 % of control and the T/C [8] is reported as 13 % of control. For the same compound, the T/C (dose: 35.0 mg/kg/injection, schedule: Q01DX011 (ip), vehicle: saline) was 9 % of control.

With Nc1[nH]c(=O)nc2c1ncn2C1OC(CO)C(O)C1O (stereo not given) the T/C [6] was 100 % of control, the T/C [8] was 42 % of control and the T/C [4] was 58 % of control.

O=c1[nH]cc(Br)c(=O)[nH]1 was tested, and the T/C (dose: 50.0 mg/kg/injection, schedule: Q02DX006 (ip), vehicle: other) was 56 % of control and the T/C (dose: 75.0 mg/kg/injection, schedule: Q02DX006 (ip), vehicle: other) was 71 % of control.

CC[N+](CC)(CC)CCO was tested, and the T/C (dose: 5.0 mg/kg/injection, schedule: Q02DX006 (ip), vehicle: saline) was 51 % of control, the T/C (dose: 10.0 mg/kg/injection, schedule: Q02DX006 (ip), vehicle: saline) was 25 % of control and the T/C (dose: 15.0 mg/kg/injection, schedule: Q02DX006 (ip), vehicle: saline) was 33 % of control.

For COC1=C(N)C(=O)c2nc(-c3nc(C(=O)O)c(C)c(-c4ccc(OC)c(OC)c4O)c3N)ccc2C1=O, the T/C (dose: 0.06 mg/kg/injection, schedule: Q01DX011 (ip), vehicle: saline) was 84 % of control, the T/C (dose: 0.09 mg/kg/injection, schedule: Q01DX011 (ip), vehicle: saline) was 77 % of control and the T/C (dose: 0.13 mg/kg/injection, schedule: Q01DX011 (ip), vehicle: saline) was 64 % of control. The T/C (dose: 0.2 mg/kg/injection, schedule: Q01DX011 (ip), vehicle: saline) was 38 % of control.

With CS(=O)(=O)OCCCCCCCCCOS(C)(=O)=O the T/C (dose: 0.25 mg/kg/injection, schedule: Q01DX011 (ip), vehicle: carboxymethylcellulose (CMC)) was 64 % of control, the T/C [9] was 93 % of control and the T/C (dose: 1.0 mg/kg/injection, schedule: Q01DX011 (ip), vehicle: carboxymethylcellulose (CMC)) was 162 % of control. The T/C (dose: 2.0 mg/kg/injection, schedule: Q01DX011 (ip), vehicle: carboxymethylcellulose (CMC)) was 95 % of control and the T/C [10] was 84 % of control.

With CCCCCCCCCCCNc1ncnc2[nH]ncc12 the T/C [5] was 46 % of control and the T/C [11] was 41 % of control.

For Clc1ccc(N2CCN(CCCN3CCN(c4cccc(Cl)c4)CC3)CC2)cc1, the T/C (dose: 7.5 mg/kg/injection, schedule: Q01DX011 (ip), vehicle: carboxymethylcellulose (CMC)) was 43 % of control, the T/C (dose: 15.0 mg/kg/injection, schedule: Q01DX011 (ip), vehicle: carboxymethylcellulose (CMC)) was 38 % of control and the T/C (dose: 30.0 mg/kg/injection, schedule: Q01DX011 (ip), vehicle: carboxymethylcellulose (CMC)) was 54 % of control.

With CN1CC(=O)N=C1N the T/C (dose: 1000.0 mg/kg/injection, schedule: Q01DX011 (ip), vehicle: saline) was 121 % of control.

c1ccc(Sc2ncnc3nc[nH]c23)cc1 was tested, and the T/C [5] was 15 % of control, the T/C (dose: 75.0 mg/kg/injection, schedule: Q01DX011 (ip), vehicle: saline) was 14 % of control and the T/C [11] was 5 % of control.

CCCCNc1nc(N)nc2nc[nH]c12 was tested, and the T/C (dose: 5.0 mg/kg/injection, schedule: Q01DX011 (ip), vehicle: carboxymethylcellulose (CMC)) was 106 % of control, the T/C (dose: 10.0 mg/kg/injection, schedule: Q01DX011 (ip), vehicle: carboxymethylcellulose (CMC)) was 104 % of control and the T/C (dose: 25.0 mg/kg/injection, schedule: Q01DX011 (ip), vehicle: carboxymethylcellulose (CMC)) was 123 % of control. For the same compound, the T/C [12] was 78 % of control and the T/C (dose: 100.0 mg/kg/injection, schedule: Q01DX011 (ip), vehicle: carboxymethylcellulose (CMC)) was 72 % of control.

In the case of CCc1c(CC(=O)O)c2cc(C)ccc2n1Cc1ccc(Cl)cc1, the T/C (dose: 1.56 mg/kg/injection, schedule: Q01DX011 (ip), vehicle: saline) is reported as 79 % of control, the T/C (dose: 3.13 mg/kg/injection, schedule: Q01DX011 (ip), vehicle: saline) is reported as 66 % of control and the T/C (dose: 6.25 mg/kg/injection, schedule: Q01DX011 (ip), vehicle: saline) is reported as 109 % of control. The T/C [7] was 10 % of control and the T/C [5] was 22 % of control.

In the case of c1ccc(CNc2ncnc3[nH]ncc23)cc1, the T/C [7] is reported as 27 % of control, the T/C [8] is reported as 25 % of control and the T/C [4] is reported as 4 % of control.

For CSc1nc2nc[nH]c2c(=O)[nH]1, the T/C [12] was 112 % of control.

In the case of N/C(=N/N=C/c1ccccc1[N+](=O)[O-])N[N+](=O)[O-], the T/C (dose: 150.0 mg/kg/injection, schedule: Q02DX006 (ip), vehicle: saline) is reported as 95 % of control and the T/C (dose: 200.0 mg/kg/injection, schedule: Q02DX006 (ip), vehicle: saline) is reported as 76 % of control.

With Nc1c(Br)cc2c(c1Br)Cc1cc([N+](=O)[O-])ccc1-2 the T/C (dose: 31.3 mg/kg/injection, schedule: Q01DX011 (ip), vehicle: saline) was 17 % of control and the T/C (dose: 125.0 mg/kg/injection, schedule: Q01DX011 (ip), vehicle: saline) was 17 % of control.

For OCC1OC(n2cnc3c(=S)nc[nH]c32)C(O)C1O (stereo not given), the T/C [9] was 29 % of control, the T/C (dose: 1.25 mg/kg/injection, schedule: Q01DX011 (ip), vehicle: carboxymethylcellulose (CMC)) was 13 % of control and the T/C (dose: 2.5 mg/kg/injection, schedule: Q01DX011 (ip), vehicle: carboxymethylcellulose (CMC)) was 3 % of control. For the same compound, the T/C (dose: 34.0 mg/kg/injection, schedule: Q01DX011 (ip), vehicle: saline) was 2 % of control, the T/C (dose: 320.0 mg/kg/injection, schedule: Q01DX001 (oral), vehicle: alkali diluted with saline) was 10 % of control and the T/C (dose: 320.0 mg/kg/injection, schedule: Q03DX004 (oral), vehicle: alkali diluted with saline) was 2 % of control. For the same compound, the T/C (dose: 320.0 mg/kg/injection, schedule: Q07DX002 (oral), vehicle: alkali diluted with saline) was 5 % of control, the T/C (dose: 480.0 mg/kg/injection, schedule: Q01DX001 (oral), vehicle: alkali diluted with saline) was 12 % of control and the T/C (dose: 480.0 mg/kg/injection, schedule: Q03DX004 (oral), vehicle: alkali diluted with saline) was 6 % of control. For the same compound, the T/C (dose: 480.0 mg/kg/injection, schedule: Q07DX002 (oral), vehicle: alkali diluted with saline) was 5 % of control, the T/C (dose: 640.0 mg/kg/injection, schedule: Q01DX001 (oral), vehicle: alkali diluted with saline) was 68 % of control and the T/C (dose: 640.0 mg/kg/injection, schedule: Q03DX004 (oral), vehicle: alkali diluted with saline) was 1 % of control. For the same compound, the T/C (dose: 640.0 mg/kg/injection, schedule: Q07DX002 (oral), vehicle: alkali diluted with saline) was 32 % of control.

In the case of O=C1C(NC(=O)C2CCCCC2)=C(N2CC2)C(=O)C(NC(=O)C2CCCCC2)=C1N1CC1, the T/C (dose: 16.0 mg/kg/injection, schedule: Q01DX009 (ip), vehicle: saline) is reported as 97 % of control, the T/C (dose: 32.0 mg/kg/injection, schedule: Q01DX009 (ip), vehicle: saline) is reported as 56 % of control and the T/C (dose: 64.0 mg/kg/injection, schedule: Q01DX009 (ip), vehicle: saline) is reported as 83 % of control.

With CNc1ncnc2c1cnn2C the T/C (dose: 2.0 mg/kg/injection, schedule: Q01DX011 (ip), vehicle: saline) was 84 % of control, the T/C (dose: 5.0 mg/kg/injection, schedule: Q01DX011 (ip), vehicle: saline) was 89 % of control and the T/C [1] was 120 % of control. For the same compound, the T/C [6] was 36 % of control.

With NNc1nc2nc[nH]c2c(=O)[nH]1 the T/C [5] was 35 % of control.

With [I][Hg][CH2]C1OCCOC1[CH2][Hg][I] (stereo not given) the T/C [10] was 84 % of control, the T/C (dose: 8.0 mg/kg/injection, schedule: Q01DX011 (ip), vehicle: carboxymethylcellulose (CMC)) was 46 % of control and the T/C (dose: 16.0 mg/kg/injection, schedule: Q01DX011 (ip), vehicle: carboxymethylcellulose (CMC)) was 34 % of control. For the same compound, the T/C (dose: 32.0 mg/kg/injection, schedule: Q01DX011 (ip), vehicle: carboxymethylcellulose (CMC)) was 44 % of control.
